The assay deals with T1, Serine/threonine-protein kinase Chk1 (Homo sapiens, UniProt O14757).
T1 sequence (O14757 whole entry): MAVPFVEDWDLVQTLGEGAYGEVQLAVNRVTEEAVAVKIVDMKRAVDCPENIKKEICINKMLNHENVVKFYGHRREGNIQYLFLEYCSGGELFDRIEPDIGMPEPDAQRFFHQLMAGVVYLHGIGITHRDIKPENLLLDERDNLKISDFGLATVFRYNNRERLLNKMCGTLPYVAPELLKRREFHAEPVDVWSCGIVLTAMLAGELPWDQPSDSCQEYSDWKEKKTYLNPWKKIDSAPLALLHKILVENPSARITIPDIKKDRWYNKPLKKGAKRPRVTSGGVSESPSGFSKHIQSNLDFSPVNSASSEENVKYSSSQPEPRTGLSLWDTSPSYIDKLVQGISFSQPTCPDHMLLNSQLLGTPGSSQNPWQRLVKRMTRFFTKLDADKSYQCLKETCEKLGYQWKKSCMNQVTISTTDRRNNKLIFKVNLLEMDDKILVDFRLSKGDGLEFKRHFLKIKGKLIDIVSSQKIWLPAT
Put plainly: Inhibition of checkpoint kinase-1.

SMILES strings stand for the structures.

`COc1ccc(Nc2nc(Nc3ccc(C(=O)O)cc3)ncc2Br)cc1` displayed an IC50 of 450 nM.
Under `N#Cc1ccc2c(c1)NC(=O)C2c1ncnc2cc(OCCCN3CCOCC3)ccc12` (configuration not stated) stands 4000 nM.

The values above are taken from ChEMBL document CHEMBL1137086, “Identification of compounds with nanomolar binding affinity for checkpoint kinase-1 using knowledge-based virtual screening” (J Med Chem, 2004).
